Consider 19 molecules from US9725446B2, “7-azaindole derivatives” (MERCK PATENT GmbH, priority 2011, dated 2017).

Broadly, the IC50 is the concentration needed to halve the response being measured.

In one assay the test system is HCT 116. Kind of assay: Tumour cell proliferation/vitality assay (Alamar Blue), HCT 116. In kind it is cell-based. The conditions noted are these: Homo sapiens; vitality assay, HCT 116 cells. The method, then: (§1) In the present experiment description, the inhibition of tumour cell proliferation/tumour cell vitality by active compounds is described.
(§2) The cells are sown in a suitable cell density in microtitre plates (96-well format) and the test substances are added in the form of a concentration series. After four further days of cultivation in serum-containing medium, the tumour cell proliferation/tumour cell vitality can be determined by means of an Alamar Blue test system.
(§3) The cells are cultivated in medium. At intervals of several days, the cells are detached from the culture dishes with the aid of trypsin solution and sown in suitable dilution in fresh medium. The cells are cultivated at 37° Celsius and 10% CO2.
(§4) A defined number of cells (for example 2000 cells) per culture/well in a volume of 180 μl of culture medium are sown in microtitre plates (96 well cell-culture plates) using a multichannel pipette. The cells are subsequently cultivated in a CO2 incubator (37° C. and 10% CO2).
(§5) The test substances are dissolved, for example, in DMSO and subsequently employed in corresponding concentration (if desired in a dilution series) in the cell culture medium. The dilution steps can be adapted depending on the efficiency of the active compounds and the desired spread of the concentrations. Cell culture medium is added to the test substances in corresponding concentrations. The addition of the test substances to the cells can take place on the same day as the sowing of the cells. To this end, in each case 20 μl of substance solution from the predilution plate are added to the cultures/wells. The cells are cultivated for a further 4 days at 37° Celsius and 10% CO2.
(§6) In each case, 20 μl of Alamar Blue reagent are added per well, and the microtitre plates are incubated, for example, for a further seven hours in a CO2 incubator (at 37° C. and 10% CO2). The plates are measured in a reader with a fluorescence filter at a wavelength of 540 nm. The plates can be shaken gently immediately before the measurement.
(§7) The absorbance value of the medium control (no cells and test substances used) is subtracted from all other absorbance values. The controls (cells without test substance) are set equal to 100 percent, and all other absorbance values are set in relation thereto (for example in % of control): […]

The subject of a further assay is A2780. Briefly: Tumour cell proliferation/vitality assay (Alamar Blue), A2780. In kind it is cell-based. The conditions noted are these: Homo sapiens; vitality assay, A2780 cells. The method, then:
as §1, §2, §3, §4, §5, §6, §7
(The colour change of resazurin is a common sign of viable cells or microbes.)

A further assay concerns TGF-beta. Kind of assay: Inhibition of TGF-beta-mediated effects (elimination of TGF-beta-mediated growth inhibition, Mv1Lu cells, Crystal Violet). Type of assay: cell-based. The method, then:
In-Vitro (Enzyme) Assay for Determination of the Efficacy of the Inhibitors of the Inhibition of TGF-Beta-Mediated Effects
As an example, the ability of the inhibitors to eliminate TGF-beta-mediated growth inhibition is tested.
Cells of the lung epithelial cell line Mv1Lu are sown in a defined cell density in a 96-well microtitre plate and cultivated overnight under standard conditions. Next day, the medium is replaced by medium which comprises 0.5% of FCS and 1 ng/ml of TGF-beta, and the test substances are added in defined concentrations, generally in the form of dilution series with 5-fold steps. The concentration of the solvent DMSO is constant at 0.5%. After a further two days, Crystal Violet staining of the cells is carried out. After extraction of the Crystal Violet from the fixed cells, the absorption is measured spectrophotometrically at 550 nm. It can be used as a quantitative measure of the adherent cells present and thus of the cell proliferation during the culture.

In assay [1] the target is TANK binding kinase (TBK1) (Homo sapiens (Human), UniProt Q9UHD2). Briefly: TBK1 kinase test (384-well flashplate). Type of assay: biochemical. The method, then: (§8) The kinase assay is performed as 384-well flashplate assay.
0.6 nM TANK binding kinase (TBK1), 800 nM biotinylated MELK-derived peptide (biotin-Ah-Ah-[…]) and 10 μM ATP (with 0.25 μCi of ^33P-ATP/well) are incubated in a total volume of 50 μl (10 mM MOPS, 10 mM magnesium acetate, 0.1 mM EGTA, 1 mM DTT, 0.02% of Brij35, 0.1% of BSA, pH 7.5) with or without test substance at 30° C. for 120 min. The reaction is stopped using 25 μl of 200 mM EDTA solution, filtered off with suction after 30 min at room temperature, and the wells are washed 3 times with 100 μl of 0.9% NaCl solution. The non-specific proportion of the kinase reaction (blank) is determined using 100 nM staurosporine. Radioactivity is measured in the Topcount. IC50 values are calculated using RS1.

Another assay addresses IKKε (Homo sapiens (Human), UniProt Q14164). Briefly: IKKε kinase test (384-well flashplate). To be noted: read-out: IC50 [IKKepsilon]. In kind it is biochemical. Here is the method: as §8
1 nM IKKε, 800 nM biotinylated IκBα(19-42) peptide (biotin-C6-C6-[…]) and 10 μM ATP (with 0.3 μCi of ^33P-ATP/well) are incubated in a total volume of 50 μl (10 mM MOPS, 10 mM magnesium acetate, 0.1 mM EGTA, 1 mM dithiothreitol, 0.02% of Brij35, 0.1% of BSA, 0.1% of BioStab, pH 7.5) with or without test substance at 30° C. for 120 min. The reaction is stopped using 25 μl of 200 mM EDTA solution, filtered off with suction after 30 min at room temperature, and the wells are washed 3 times with 100 μl of 0.9% NaCl solution. The non-specific proportion of the kinase reaction (blank) is determined using 3 μM EMD 1126352 (BX-795). Radioactivity is measured in the Topcount. IC50 values are calculated using RS1.

The target in the next assay is PDK1 (Homo sapiens (Human), UniProt O15530). Briefly: Test for the inhibition of PDK1 (flashplate, 33P-ATP). In kind it is biochemical. Here is the method: The experimental batches are carried out in a flashplate system with 384 wells/microtitration plate.
(400 nM), 4 μM ATP (with 0.2 μCi of ^33P-ATP/well) and the test substance in 50 μl of conventional experimental solution per well are incubated at 30° C. for 60 min. The test substances are employed in corresponding concentrations (if desired in a dilution series). The control is carried out without test substance. The reaction is stopped using standard methods and washed. The activity of the kinase is measured via the incorporated radioactivity in top count. In order to determine the non-specific kinase reaction (blank value), the experimental batches are carried out in the presence of 100 nM staurosporine.
The radioactivity (decompositions per minute) of the blank value (no use of test substance in the presence of staurosporine) is subtracted from all other radioactivity values. The controls (kinase activity without test substance) are set equal to 100 percent and all other radioactivity values (after subtracting the blank value) are expressed set in relation thereto (for example in % of the control).

Sequence of TANK binding kinase (TBK1) (Q9UHD2 whole entry, species assumed): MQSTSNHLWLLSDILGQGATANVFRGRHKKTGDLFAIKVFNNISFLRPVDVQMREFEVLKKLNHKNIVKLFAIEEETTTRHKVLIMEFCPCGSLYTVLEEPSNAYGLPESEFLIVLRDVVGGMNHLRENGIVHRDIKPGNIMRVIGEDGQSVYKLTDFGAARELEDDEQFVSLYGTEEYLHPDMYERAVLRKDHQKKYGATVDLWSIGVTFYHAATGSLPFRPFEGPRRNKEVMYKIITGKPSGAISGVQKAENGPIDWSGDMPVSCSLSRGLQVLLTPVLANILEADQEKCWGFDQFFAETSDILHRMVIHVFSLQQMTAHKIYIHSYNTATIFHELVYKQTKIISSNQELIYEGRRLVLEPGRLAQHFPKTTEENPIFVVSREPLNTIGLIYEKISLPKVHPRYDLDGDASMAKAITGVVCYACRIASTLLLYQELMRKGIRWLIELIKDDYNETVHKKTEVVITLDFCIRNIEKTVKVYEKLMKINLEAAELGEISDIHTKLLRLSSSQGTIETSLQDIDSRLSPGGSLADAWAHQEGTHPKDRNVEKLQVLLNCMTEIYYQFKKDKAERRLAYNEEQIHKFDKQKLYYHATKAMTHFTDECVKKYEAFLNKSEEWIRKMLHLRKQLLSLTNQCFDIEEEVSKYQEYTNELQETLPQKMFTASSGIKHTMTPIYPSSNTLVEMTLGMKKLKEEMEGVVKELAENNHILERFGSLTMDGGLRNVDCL
Sequence of IKKε (Q14164 whole entry, species assumed): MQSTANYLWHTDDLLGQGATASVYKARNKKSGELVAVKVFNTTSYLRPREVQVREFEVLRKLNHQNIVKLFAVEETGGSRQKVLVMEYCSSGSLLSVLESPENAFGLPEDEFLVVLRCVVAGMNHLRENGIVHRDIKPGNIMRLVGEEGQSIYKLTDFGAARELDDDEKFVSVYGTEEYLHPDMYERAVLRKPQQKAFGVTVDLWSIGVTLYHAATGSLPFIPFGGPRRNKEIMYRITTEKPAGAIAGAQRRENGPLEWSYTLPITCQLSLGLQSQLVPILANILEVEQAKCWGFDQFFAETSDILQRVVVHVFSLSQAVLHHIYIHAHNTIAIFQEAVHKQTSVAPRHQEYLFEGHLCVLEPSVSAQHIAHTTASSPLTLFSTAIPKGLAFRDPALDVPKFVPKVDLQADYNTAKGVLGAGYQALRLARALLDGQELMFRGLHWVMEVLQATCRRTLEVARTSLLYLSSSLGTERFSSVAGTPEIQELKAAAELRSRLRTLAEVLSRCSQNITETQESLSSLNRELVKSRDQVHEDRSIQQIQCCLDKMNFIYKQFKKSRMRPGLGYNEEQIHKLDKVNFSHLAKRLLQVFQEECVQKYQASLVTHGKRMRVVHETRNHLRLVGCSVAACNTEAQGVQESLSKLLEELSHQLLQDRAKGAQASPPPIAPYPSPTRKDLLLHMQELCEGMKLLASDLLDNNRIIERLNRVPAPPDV
Sequence of PDK1 (O15530 51-556): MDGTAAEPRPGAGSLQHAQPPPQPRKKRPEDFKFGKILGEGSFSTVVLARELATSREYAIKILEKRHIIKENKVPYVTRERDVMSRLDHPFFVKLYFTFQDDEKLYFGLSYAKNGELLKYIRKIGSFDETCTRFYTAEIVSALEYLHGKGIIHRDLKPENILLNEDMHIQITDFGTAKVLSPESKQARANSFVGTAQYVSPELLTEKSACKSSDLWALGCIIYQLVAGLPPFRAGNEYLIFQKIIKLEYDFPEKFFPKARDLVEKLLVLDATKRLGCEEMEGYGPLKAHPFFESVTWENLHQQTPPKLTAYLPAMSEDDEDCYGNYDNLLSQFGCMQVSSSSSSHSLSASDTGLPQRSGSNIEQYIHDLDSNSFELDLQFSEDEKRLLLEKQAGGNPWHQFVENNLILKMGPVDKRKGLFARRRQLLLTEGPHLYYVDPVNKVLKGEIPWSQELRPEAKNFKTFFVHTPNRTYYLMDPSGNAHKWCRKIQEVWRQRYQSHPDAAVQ

Regarding `Nc1cc(-c2c[nH]c3ncccc23)c2ccccc2n1` [Compound A1, 4-(1H-pyrrolo[2,3-b]pyridin-3-yl)quinolin-2-ylamine], the IC50 with HCT 116 and in the assay on A2780 was 1000 to 10000 nM each time.
As to `c1cnc2[nH]cc(-c3cnc4ncccn34)c2c1` [Compound A3, 3-(1H-pyrrolo[2,3-b]pyridin-3-yl)imidazo[1,2-a]pyrimidine], the IC50 in the assay with HCT 116 and in the assay on A2780 was 1000 to 10000 nM each time.
Take `c1ccc2c(-c3c[nH]c4ncccc34)cnnc2c1` [Compound A4, 4-(1H-pyrrolo[2,3-b]pyridin-3-yl)cinnoline]: the IC50 in the assay with TGF-beta, in the assay on HCT 116 and with A2780 was 1000 to 10000 nM throughout.
On to `c1cc(-c2c[nH]c3ncccc23)c2ccncc2c1` [Compound A7, 5-(1H-pyrrolo[2,3-b]pyridin-3-yl)isoquinoline], for which the IC50 with TGF-beta was in the range of 0.5 to 1000 nM; in assay [1] it was 1000 to 10000 nM; with HCT 116 it was 1000 to 10000 nM; at IKKε, 1000 to 10000 nM; in the assay on A2780 it was 1000 to 10000 nM.
Turning to `Nc1nccc2c(-c3c[nH]c4ncccc34)cccc12` [Compound A11, 5-(1H-pyrrolo[2,3-b]pyridin-3-yl)isoquinolin-1-ylamine], the IC50 with TGF-beta, in the assay with HCT 116 and with A2780 was 1000 to 10000 nM each time.
As to `Cn1cc(-c2cnc3[nH]cc(-c4cn(S(=O)(=O)c5ccccc5)c5cnccc45)c3c2)cn1` [Compound A14, 1-benzenesulfonyl-3-[5-(1-methyl-1H-pyrazol-4-yl)-1H-pyrrolo[2,3-b]pyridin-3-yl]-1H-pyrrolo[2,3-c]pyridine], the IC50 at PDK1 lay in the range of 1000 to 10000 nM; in assay [1], 0.5 to 1000 nM; at IKKε, 0.5 to 1000 nM; in the assay on A2780, 10 to 1000 nM.
Molecule `Cc1[nH]c2ncccc2c1-c1cccc2cnccc12` [Compound A15, 5-(2-methyl-1H-pyrrolo[2,3-b]pyridin-3-yl)isoquinoline] returned an IC50 in the assay on TGF-beta of 0.5 to 1000 nM.
Same read-out and setting: the value for `c1cnc2[nH]cc(-c3nccc4cnccc34)c2c1` [Compound A16, 1-(1H-pyrrolo[2,3-b]pyridin-3-yl)-2,6-naphthyridine] was 0.5 to 1000 nM; that for `Cn1cc(-c2cccc3cnccc23)c2cccnc21` [Compound A17, 5-(1-methyl-1H-pyrrolo[2,3-b]pyridin-3-yl)isoquinoline] was 0.5 to 1000 nM.
For the molecule `c1cnc2[nH]cc(-c3c[nH]c4cnccc34)c2c1` [Compound A18, 3-(1H-pyrrolo[2,3-b]pyridin-3-yl)-1H-pyrrolo[2,3-c]pyridine], the IC50 lay in the range of 1000 to 10000 nM against PDK1, 1000 to 10000 nM in the assay with TGF-beta, 0.5 to 1000 nM in assay [1] and 1000 to 10000 nM at IKKε.
In turn, `Cn1cc(-c2c[nH]c3ncccc23)c2ccncc21` [Compound A19, 1-methyl-3-(1H-pyrrolo[2,3-b]pyridin-3-yl)-1H-pyrrolo[2,3-c]pyridine] registered an IC50 with TGF-beta of 1000 to 10000 nM.
As for `Cn1cc(-c2cnc3[nH]cc(-c4c[nH]c5cnccc45)c3c2)cn1` [Compound A20, 3-[5-(1-methyl-1H-pyrazol-4-yl)-1H-pyrrolo[2,3-b]pyridin-3-yl]-1H-pyrrolo[2,3-c]pyridine], the IC50 fell in the range of 0.5 to 1000 nM against PDK1; 0.5 to 1000 nM in the assay on TGF-beta; 0.5 to 1000 nM in assay [1]; 10 to 1000 nM in the assay on HCT 116; 0.5 to 1000 nM at IKKε; 10 to 1000 nM with A2780.
As to `c1ccc(-c2cc3nccc(-c4c[nH]c5ncccc45)c3o2)cc1` [Compound A21, 2-phenyl-7-(1H-pyrrolo[2,3-b]pyridin-3-yl)furo[3,2-b]pyridine], the IC50 in the assay on HCT 116 and in the assay with A2780 was 10 to 1000 nM in each case.
As for `Nc1ncc(-c2c[nH]c3ncccc23)c2ccncc12` [Compound A24, 4-(1H-pyrrolo[2,3-b]pyridin-3-yl)-2,7-naphthyridin-1-ylamine], the IC50 is 0.5 to 1000 nM in the assay with TGF-beta, 1000 to 10000 nM in assay [1], 1000 to 10000 nM in the assay with HCT 116 and 1000 to 10000 nM in the assay with A2780.
For `Cc1[nH]c2ncccc2c1-c1nccc2cnccc12` [Compound A28, 1-(2-methyl-1H-pyrrolo[2,3-b]pyridin-3-yl)-2,6-naphthyridine], in the assay on TGF-beta, the IC50 fell in the range of 0.5 to 1000 nM.
On to `Cn1cc(-c2c[nH]c3cnccc23)c2cccnc21` [Compound A29, 3-(1-methyl-1H-pyrrolo[2,3-b]pyridin-3-yl)-1H-pyrrolo[2,3-c]-pyridine], for which the IC50 in the assay on HCT 116 and with A2780 was 1000 to 10000 nM each time.
As to `Cc1[nH]c2ncccc2c1-c1nccc2c(N)nccc12` [Compound A31, 5-(2-methyl-1H-pyrrolo[2,3-b]pyridin-3-yl)-2,6-naphthyridin-1-ylamine], the IC50 in the assay with TGF-beta is 0.5 to 1000 nM; in the assay with HCT 116, 1000 to 10000 nM; in the assay with A2780 it was 1000 to 10000 nM.
Take `Nc1nccc2c(-c3c[nH]c4ncccc34)nccc12` [Compound A32, 5-(1H-pyrrolo[2,3-b]pyridin-3-yl)-2,6-naphthyridin-1-ylamine]: the IC50 in the assay with TGF-beta lay within 0.5 to 1000 nM; in the assay on HCT 116 it was 1000 to 10000 nM.
Regarding `Cn1cc(-c2cnc3[nH]cc(-c4cn(C)c5cnccc45)c3c2)cn1` [Compound A33, 1-methyl-3-[5-(1-methyl-1H-pyrazol-4-yl)-1H-pyrrolo[2,3-b]-pyridin-3-yl]-1H-pyrrolo[2,3-c]pyridine], the IC50 (against PDK1; in the assay with TGF-beta; in assay [1]; on IKKε) was 0.5 to 1000 nM each time.
